Patent US7037901B1, “Radiosensitization by indolocarbazole derivatives” (priority 2001, dated 2006)

Tests used:
purified human TOP1 = target: T1, purified human TOP1 (Homo sapiens, UniProt P11387); experiment: In vitro drug-stimulated TOP1 cleavage assay (pHOT1 plasmid nicking); type: biochemical; design: key to TOP1-mediated DNA cleavage: +++: high activity; ++: modest activity; +: low activity; conditions: for TOP1-mediated DNA cleavage: in vitro, based on FIG. 4B and 4C; for Potency in inducing TOP1-mediated DNA cleavage (nicking of pHOT1): purified human TOP1, FIG. 4, 4C
T1 construct: purchased TopoGEN, Inc. (Columbus, Ohio)
T1 sequence (P11387 1-765): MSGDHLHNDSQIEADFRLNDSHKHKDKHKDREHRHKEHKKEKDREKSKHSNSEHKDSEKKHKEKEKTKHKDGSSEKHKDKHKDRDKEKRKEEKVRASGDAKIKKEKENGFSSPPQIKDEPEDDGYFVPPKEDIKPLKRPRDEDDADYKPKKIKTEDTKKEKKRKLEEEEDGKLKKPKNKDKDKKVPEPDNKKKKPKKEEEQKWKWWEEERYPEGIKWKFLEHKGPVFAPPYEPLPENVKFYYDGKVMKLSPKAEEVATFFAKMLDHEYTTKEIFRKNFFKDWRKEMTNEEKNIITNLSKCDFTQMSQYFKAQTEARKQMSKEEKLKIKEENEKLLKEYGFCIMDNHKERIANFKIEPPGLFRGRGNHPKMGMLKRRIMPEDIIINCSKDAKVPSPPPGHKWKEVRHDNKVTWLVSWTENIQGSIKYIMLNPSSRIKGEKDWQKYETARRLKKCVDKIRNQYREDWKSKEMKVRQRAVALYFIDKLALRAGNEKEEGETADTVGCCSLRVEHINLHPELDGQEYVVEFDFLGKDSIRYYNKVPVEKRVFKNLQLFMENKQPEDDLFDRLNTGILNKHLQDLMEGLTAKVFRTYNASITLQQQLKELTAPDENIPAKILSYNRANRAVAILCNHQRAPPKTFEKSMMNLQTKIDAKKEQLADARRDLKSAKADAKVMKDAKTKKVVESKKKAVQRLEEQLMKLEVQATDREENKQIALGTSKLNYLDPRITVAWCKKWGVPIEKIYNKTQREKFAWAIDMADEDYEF
Description: In vitro drug-stimulated TOP1 cleavage assay. Drug-stimulated DNA cleavage assay using purified human TOP1 was performed according to the protocol provided by TopoGEN Inc. (Columbus, Ohio) with modifications.
Briefly, supercoiled pHOT1 plasmid DNA (0.2 μg) was incubated with 1 unit of human TOP1 in cleavage buffer (50 mM Tris, pH 7.8, 50 mM KCl, 10 mM MgCl2, 1 mM dithiothreitol, 1 mM EDTA) in the presence of varying concentrations of the drug under study. Following a 30-min incubation at 37° C., the reactions were terminated by adding SDS to 1.0% and proteinase K to 200 μg/ml. The proteinase K treatment continued at 37° C. for 1 h. The sample was then mixed with loading dye (containing sucrose and bromphenol blue) and separated in 1% agarose gel in 0.08 M Tris-phosphate, 0.008 M EDTA, pH 8.0 buffer at room temperature for 16 h.
The gel was initially stained with ethidium bromide ([…]), washed and photographed under UV light. In order to separate the “nicked” from the “relaxed” DNA population, the gel was further run for 4 h in the presence of ethidium bromide before being photographed again under UV light. The photograph was scanned and the intensity of the nicked DNA of each lane was measured using the ImageJ program obtained from the National Institutes of Health (web site: rsb.info.nih.gov/ij/). The intensity of the nicked band of each lane was plotted after the background intensity (pHOT1+TOP1 lane) was subtracted.

[1] = system: human MCF-7 and Chinese hamster DC3F cells; experiment: RS activity summary (MCF-7 and DC3F cells); type: cell-based; design: key: +: possess RS activity; −: possess no RS activity; conditions: MCF-7 (FIG. 2) and DC3F cells (Table 4)
Description: Clonogenic Survival Assay. […] 18–24 h prior to experimental studies.
Colonies consisting of >50 cells were counted.
Irradiation of Cells. Drug-treated and control cells in medium were irradiated using a cobalt-60 source (Eldorado 8; Theratronics, Canada) at a dose rate of 105 cGy/min.
Analysis of Survival Curves. Survival curves were corrected for cytotoxicity induced by drug alone treatment. Sensitization enhancement ratios (SERs) and standard deviations for survival curves were determined at 10% cell survival. Each SER was calculated by dividing the radiation dose to induce 10% cell survival in the absence of radiosensitizer with the radiation dose to induce 10% cell survival in the presence of radiosensitizer.

[2] = system: camptothecin-resistant, TOP1 mutant DC3F/C-10 cells; conditions: for Cytotoxic effect: DC3F/C10 cells
Description: Clonogenic Survival Assay. For a typical clonogenic survival experiment, stock cultures of exponentially growing cells were trypsinized, rinsed, and plated (5×10^5 cells per dish for DC3F and DC3F/C-10 cells; 1×10^6 cells for MCF-7 cells) into 100-mm petri dishes and incubated at 37° C. 18–24 h prior to experimental studies.
Following various experimental protocols with drug incubation and irradiation, cells were trypsinized, rinsed, counted, and plated for […] colony formation. Depending on the anticipated survival level, 10^2 to 10^5 cells were plated per dose point. When higher cell numbers were plated, large petri dishes were used to avoid possible cell-density effect (100-mm instead of 60-mm petri dishes for cell number≧5×10^4). Depending on the treatment protocols, an equivalent amount of DMSO was added into each of the control radiation alone dishes (final DMSO concentration <0.1%).
Following seven to fourteen days of incubation, colonies were fixed with methanol/acetic acid (3:1), stained with crystal violet. Colonies consisting of >50 cells were counted. All survival points were done in triplicate, and experiments were conducted a minimum of two times. Error bars shown in the figures represent standard deviations (SD) and are shown when larger than the symbol.
The DC3F/C-10 cell line was selected from the Chinese Hamster lung fibroblast DC3F cell line in the presence of 1 μM of camptothecin (Albright, N., Radiat. Res., 112:331–340 (1987), and Chen, Y. N., J. Biol. Chem., 265:10073–10080 (1990)). […] In an attempt to determine the importance of TOP1 in mediating the cytotoxic and radiosensitizing effects by INDO derivatives, clonogenic survival assays were performed in DC3F and DC3F/C10 cells.

Row | SMILES | TOP1-mediated DNA cleavage (purified human TOP1) | Potency in inducing TOP1-mediated DNA cleavage (nicking of pHOT1) (purified human TOP1) | RS (radiosensitization activity) [1] | Cytotoxic effect [2] | RR (relative resistance) [2] | Relative resistance of DC3F/C10 cells to the cytotoxic effect [2]
1 | CO[C@H]1[C@H](O)[C@@H](O)[C@H](n2c3c(Cl)cccc3c3c4c(c5c6cccc(Cl)c6[nH]c5c32)C(=O)NC4=O)O[C@@H]1CO [F1, rebeccamycin] | + | less potent group | + | lack of cytotoxic effect |  | 
2 | COC1C(CO)OC(n2c3ccccc3c3c4c(c5c6ccccc6[nH]c5c32)C(=O)OC4=O)C(O)C1O (stereo not drawn) [F5] | + | less potent group | + | lack of cytotoxic effect |  | 
3 | COC1C(CO)OC(n2c3ccccc3c3c4c(c5c6ccccc6[nH]c5c32)C(=O)N(O)C4=O)C(O)C1O (stereo not drawn) [F7] | +++ | equivalent activity as camptothecin | + |  | >5.0 | more than 5 fold
4 | COC1C(CO)OC(n2c3c(Cl)cccc3c3c4c(c5c6cccc(Cl)c6[nH]c5c32)C(=O)N(C)C4=O)C(O)C1O (stereo not drawn) [F43] | + | less potent group | − | lack of cytotoxic effect |  | 
5 | COC1C(CO)OC(n2c3ccccc3c3c4c(c5c6ccccc6[nH]c5c32)C(=O)N(C)C4=O)C(O)C1O (stereo not drawn) [F44] | ++ | less potent group | − |  | 2.5 | 2.5 fold
6 | COC1C(CO)OC(n2c3ccccc3c3c4c(c5c6ccccc6[nH]c5c32)C(=O)NC4=O)C(O)C1O (stereo not drawn) [F71] | +++ | equivalent activity as camptothecin | − |  | 2.7 | 2.7 fold
